Reference: patent publication US12410164B2, “Heterocyclic compounds and medical use thereof” (FONDAZIONE TELETHON, priority 2018, dated 2025)
Entries after “also recorded” stand apart in the source; their conditions may differ.

Tests used:
F508del-CFTR [1] = biological target: T1, F508del-CFTR (Homo sapiens, UniProt P13569, DEL508-508); assay: HS-YFP kinetic fluorescence (iodide quenching rate) assay in CFBE41o− cells; type: cell-based; design: expressed in transfected cells; host or cells: CFBE41o- cells with expression of F508del-CFTR and HS-YFP (generated as in Sondo et al. 2011); conditions: for AI (%) additivity index: Table 1, compound at 10 μM plus VX-809, (QRTOT − QRVX)/QRVX, HS-YFP assay; for structure-activity comparison of corrector potency/activity: relative to the analogue
How it was run: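 CFBE41o- cells co-expressing F508del-CFTR and HS-YFP, treated 24 h with compound (0.1-0.2% DMSO), then stimulated with 20 μM forskolin plus 50 μM genistein. Fluorescence was read for 14 s during NaI injection. Background-subtracted, normalized traces were fitted exponentially to give maximum quenching rate (QR).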

F508del-CFTR [2] = biological target: T1, F508del-CFTR; assay: Analysis of F508del-CFTR maturation by immunoblot in CFBE41o− cells; type: cell-based; design: expressed in transfected cells; host or cells: CFBE41o- cells with expression of F508del-CFTR and HS-YFP (generated as in Sondo et al. 2011); conditions: compound 10 μM plus VX-809 1 μM, 24 hr
Protocol: CFBE41o− cells were grown to confluence on 60-mm diameter dishes and lysed in RIPA buffer containing a complete protease inhibitor (Roche; cat. n. 11697498001). Cell lysates were centrifuged at 12000 rpm at 4° C. for 10 min. Supernatant protein concentration was calculated using the BCA assay (Euroclone; cat. n. EMP014500) following the manufacturer's instructions. Equal amounts of total protein content (30 μg) were separated onto 10% Criterion TGX Precast gels (Bio-rad laboratories Inc.; cat. n. 4561033), transferred to nitrocellulose membrane with Trans-Blot Turbo system (Bio-rad Laboratories Inc.) and analyzed by Western blotting. Primary antibody for CFTR was anti-CFTR 596 (University of North Carolina at Chapel Hill, and Cystic Fibrosis Foundation Therapeutics, see Cui L, et al. J. Mol Biol 2007, 365, 981-994) at 1:5000 dilution. As secondary antibody, anti-mouse HRP-conjugated Ab 97023 (Abcam) was used at 1:10000 dilution. Results were subsequently visualized by chemiluminescence using the SuperSignal West Femto Substrate (Thermo Scientific) and the Molecular Imager ChemiDoc XRS System.
To analyze the mechanism of action of the compounds of the invention, two types of experiments were carried out. In the first type of experiment, the electrophoretic mobility of F508del-CFTR protein was determined by immunoblot assay. This is a frequently used method to assess the effect of correctors at the protein level. In control conditions, F508del-CFTR migrates predominantly as a single band of 150 kDa called “band B”. This is the immature form of the protein residing in the endoplasmic reticulum. When the protein folding and stability is improved by correctors, an additional band appears at higher molecular weight (170 kDa). This is the so-called band C, which represents the mature form of the CFTR protein that has reached the Golgi compartment and acquired full glycosylation.

T1 sequence (P13569 with tags, fused parts or gaps DEL508-508): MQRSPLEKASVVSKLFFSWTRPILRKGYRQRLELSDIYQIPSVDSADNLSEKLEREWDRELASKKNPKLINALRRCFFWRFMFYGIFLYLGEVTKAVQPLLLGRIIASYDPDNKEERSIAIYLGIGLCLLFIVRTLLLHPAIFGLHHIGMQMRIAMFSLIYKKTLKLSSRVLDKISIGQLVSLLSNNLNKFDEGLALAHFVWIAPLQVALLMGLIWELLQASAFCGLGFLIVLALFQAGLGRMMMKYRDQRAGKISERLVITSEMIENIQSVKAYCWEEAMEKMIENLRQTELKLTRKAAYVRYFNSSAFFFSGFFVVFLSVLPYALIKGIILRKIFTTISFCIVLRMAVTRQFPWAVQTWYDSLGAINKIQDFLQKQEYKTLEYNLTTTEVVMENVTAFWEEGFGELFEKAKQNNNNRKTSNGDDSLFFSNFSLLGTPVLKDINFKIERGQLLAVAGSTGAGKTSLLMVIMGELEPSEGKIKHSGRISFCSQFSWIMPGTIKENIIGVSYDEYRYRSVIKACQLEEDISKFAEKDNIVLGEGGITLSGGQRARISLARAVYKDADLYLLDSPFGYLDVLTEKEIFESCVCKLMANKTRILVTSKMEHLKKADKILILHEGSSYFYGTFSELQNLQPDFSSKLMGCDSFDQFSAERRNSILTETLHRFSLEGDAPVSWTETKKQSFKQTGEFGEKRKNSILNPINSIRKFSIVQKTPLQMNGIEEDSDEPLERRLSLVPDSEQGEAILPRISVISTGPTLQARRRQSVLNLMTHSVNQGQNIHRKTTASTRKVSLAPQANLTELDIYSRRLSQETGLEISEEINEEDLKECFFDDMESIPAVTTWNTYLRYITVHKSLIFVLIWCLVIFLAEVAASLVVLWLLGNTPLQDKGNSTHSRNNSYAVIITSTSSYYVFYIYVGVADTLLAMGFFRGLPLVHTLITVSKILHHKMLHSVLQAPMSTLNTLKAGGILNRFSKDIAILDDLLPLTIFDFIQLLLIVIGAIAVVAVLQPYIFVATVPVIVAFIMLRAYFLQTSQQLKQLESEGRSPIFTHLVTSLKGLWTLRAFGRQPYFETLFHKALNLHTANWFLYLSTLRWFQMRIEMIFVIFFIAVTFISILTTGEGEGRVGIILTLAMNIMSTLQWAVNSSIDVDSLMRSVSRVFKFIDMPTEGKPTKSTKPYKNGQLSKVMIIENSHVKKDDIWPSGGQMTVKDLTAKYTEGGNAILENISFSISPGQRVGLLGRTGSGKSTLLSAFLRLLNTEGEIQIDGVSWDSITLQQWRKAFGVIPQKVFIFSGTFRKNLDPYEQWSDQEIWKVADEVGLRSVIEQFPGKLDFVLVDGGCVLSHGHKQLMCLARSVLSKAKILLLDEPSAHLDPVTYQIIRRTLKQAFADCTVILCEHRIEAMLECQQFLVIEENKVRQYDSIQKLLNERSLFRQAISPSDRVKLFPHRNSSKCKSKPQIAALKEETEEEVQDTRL

AI (%) additivity index (F508del-CFTR [1]) [%]	F508del-CFTR activity (quenching rate) of combination with VX-809 (F508del-CFTR [1]; compound plus VX-809 1 μM, 24 h)	SMILES	structure-activity comparison of corrector potency/activity (F508del-CFTR [1])	band C (mature form) expression versus VX-809 alone (F508del-CFTR [2])
207	strong synergistic effect	CCOC(=O)c1c(Br)c2c(n1Cc1ccc(C)cc1)-c1[nH]c(=O)c(S(=O)(=O)c3ccccc3)cc1CC2 [PP008, Ethyl 7-(benzenesulfonyl)-3-bromo-1-[(4-methylphenyl)methyl]-8-oxo-4,5,8,9-tetrahydro-1H-pyrrolo[3,2-h]quinoline-2-carboxylate]	important increase in potency; also recorded: more potent than the non-halogenated analogues	markedly enhances the abundance of the mature form of the protein; also recorded: marked increase in band C expression
278	–	CCOC(=O)c1c(Br)c2c(n1Cc1cccc(C)c1)-c1[nH]c(=O)c(S(=O)(=O)c3ccccc3)cc1CC2 [PP028, Ethyl 3-bromo 1-(3-methylbenzyl)-8-oxo-7-(phenylsulfonyl)-4,5,8,9-tetrahydro-1H-pyrrolo[3,2-h]quinoline-2-carboxylate]	important increase in efficiency in combination with the VX-809 and potency	markedly enhances the abundance of the mature form of the protein; also recorded: marked increase in band C expression
